According to article PMC8491704, “Pharmacokinetic study of Tangwang Mingmu granule for the management of diabetic retinopathy based on network pharmacology” (Pharmaceutical Biology, 2021):
Read-outs that look alike come from different tables or passages of the source.

Key:
[1] = Pharmacokinetic study in SD rats after oral administration of TWMM (UPLC-QQQ-MS of plasma); type: in vivo, Sprague-Dawley (SD) rats; details: oral TWMM 9.6 g/kg
Method: Chromatographic separation was performed using an ACQUITY UPLC H-Class system equipped with a 1.8 μm HSS T3 analytical column (100 mm × 2.1 i.d., Waters Corporation, Milford, USA). […] ESI source was set to negative ionisation mode while the analysis was performed using multiple reaction monitorin. Ion spray voltage (3000 V), capillary temperature (450 °C), and the source parameters of the nine compounds are shown in Table 2.
The data obtained from the UPLC/Q-Orbitrap MS was imported into Xcalibur 4.0 software for analysis. Furthermore, the constituents acquired using GCMS-QP 2010 were profiled by comparison using the National Institute of Standards and Technology (NIST) database. The pharmacokinetic data were processed through MassLynx 4.1, and DAS 2.0 software was used to calculate the pharmacokinetic parameters according to the compartment model.
Six male SD rats (average weight: 220 ± 10 g) were acquired from Beijing Vital-River Laboratory Animal Technology Co., Ltd. All rats were acclimatized to an environmentally controlled laboratory for a week. Following this period, the rats were exposed to fasting conditions for 12 h but were allowed free access to water before the experiment. The rats were orally administered TWMM at a dose of 9.6 g/kg. Blood samples (300 µL) were collected into heparinized centrifuge tubes from the fossa orbitalis at pre-dose and 0.03, 0.08, 0.17, 0.25, 0.5, 1, 2, 4, 8, 12, 24, and 36 h intervals. The samples were immediately centrifuged at 6000 g for 10 min at 4 °C and the supernatants were transferred to clean centrifuge tubes.
Each 100 µL plasma sample was mixed with 20 µL of methanol, 20 µL of IS (5 µg/mL), and 600 µL acetonitrile. The mixtures were centrifuged at 15,000 g for 10 min at 4 °C after being vortexed for 3 min. The obtained supernatants were transferred to clean 1.5 mL centrifuge tubes, followed by evaporation under a milt nitrogen stream. Next, the obtained residues were individually redissolved in 100 µL of methanol and centrifuged at 15,000 g for 10 min at 4 °C after vortexed for 3 min. Lastly, 10 µL of individual supernatant was injected for analysis.

[2] = Stability of QC samples of 8 compounds in rat plasma (25 °C 4 h, autosampler 12 h, three freeze-thaw cycles, −80 °C 7 d); type: in vitro ADME
Method: The calibration curves were assessed at eight concentration levels using the correlation coefficient (r). The lower limit of quantification (LLOQ) could fulfil the analytical requirements and achieved reliable accuracy and precision with a signal-to-noise ratio (S/N) ≥ 10. To determine intra- and inter-day precision and accuracy, six replicate quality control (QC) samples at three concentrations were prepared. Inter- and intra-day precision was evaluated by determining relative standard deviation (RSD) values, while accuracy was expressed in terms of the relative error (RE). The extraction recoveries were determined using three concentration levels and calculated by comparing the peak area of extracted samples with post-extracted spiked samples. Subsequently, matrix effects were assessed using the peak area of post-extracted spiked samples contrasted with QC samples at the three concentration levels. The stability test of QC samples at the three concentration levels was as follows: storage at 25 °C for 4 h, storage in an autosampler for 12 h, freeze-thaw cycle for three times, and storage at −80 °C for 7 d.
The stability tests were carried out under three freeze-thaw cycles, at 25 °C for 4 h, in an autosampler for 12 h, and at −80 °C for 7 d.

CC=C1[C@H](O[C@@H]2O[C@H](CO)[C@@H](O)[C@H](O)[C@H]2O)OC=C(C(=O)OC)[C@H]1CC(=O)OC[C@H]1O[C@@H](OCCc2ccc(O)cc2)[C@H](O)[C@@H](O)[C@@H]1O (stereo in doubt) [Specnuezhenide]
areas under the concentration-time curve (AUC0–∞) [1]: 57.2 ± 30.2 ng·h/mL
AUC (0–36) ([1]; n = 6): 48.62 ± 19.41 ng·h/mL
AUC (0–∞) ([1]; n = 6): 57.19 ± 30.25 ng·h/mL
Cmax ([1]; n = 6): 13.33 ± 4.61 ng/mL
MRT (0–36) ([1]; n = 6): 11.02 ± 5.63 h
MRT (0–∞) ([1]; n = 6): 19.29 ± 16.60 h
Tmax ([1]; n = 6): 0.46 ± 0.29 h
t1/2 ([1]; n = 6): 20.27 ± 25.00 h
Tmax ([1]; n = 6, listed as specnuezhenide): ≤ 1 h
Stability in rat plasma, Autosampler (12 h, 4 °C), Measured ([2]; QC concentration 1 ng/mL, autosampler 12 h, 4 °C, rat plasma, n = 3): 1.1 ± 0.1 ng/mL
Stability in rat plasma, Long term (7 day, –80 °C), Measured ([2]; QC concentration 1 ng/mL, long term 7 day, –80 °C, rat plasma, n = 3): 1.0 ± 0.1 ng/mL
Stability in rat plasma, Room temperature (4 h, 25 °C), Measured ([2]; QC concentration 1 ng/mL, room temperature 25 °C, rat plasma, n = 3): 1.0 ± 0.1 ng/mL
Stability in rat plasma, Three freeze/thaw cycles, Measured ([2]; QC concentration 1 ng/mL, three freeze/thaw cycles, rat plasma, n = 3): 1.0 ± 0.0 ng/mL
Stability in rat plasma, Autosampler (12 h, 4 °C), Measured ([2]; QC concentration 10 ng/mL, autosampler 12 h, 4 °C, rat plasma, n = 3): 9.8 ± 0.6 ng/mL
Stability in rat plasma, Long term (7 day, –80 °C), Measured ([2]; QC concentration 10 ng/mL, long term 7 day, –80 °C, rat plasma, n = 3): 10.3 ± 0.6 ng/mL
Stability in rat plasma, Room temperature (4 h, 25 °C), Measured ([2]; QC concentration 10 ng/mL, room temperature 25 °C, rat plasma, n = 3): 10.7 ± 0.2 ng/mL
Stability in rat plasma, Three freeze/thaw cycles, Measured ([2]; QC concentration 10 ng/mL, three freeze/thaw cycles, rat plasma, n = 3): 11.5 ± 0.6 ng/mL
Stability in rat plasma, Autosampler (12 h, 4 °C), Measured ([2]; QC concentration 200 ng/mL, autosampler 12 h, 4 °C, rat plasma, n = 3): 198.2 ± 2.6 ng/mL
Stability in rat plasma, Long term (7 day, –80 °C), Measured ([2]; QC concentration 200 ng/mL, long term 7 day, –80 °C, rat plasma, n = 3): 225.6 ± 9.0 ng/mL
Stability in rat plasma, Room temperature (4 h, 25 °C), Measured ([2]; QC concentration 200 ng/mL, room temperature 25 °C, rat plasma, n = 3): 212.7 ± 8.4 ng/mL
Stability in rat plasma, Three freeze/thaw cycles, Measured ([2]; QC concentration 200 ng/mL, three freeze/thaw cycles, rat plasma, n = 3): 219.0 ± 8.4 ng/mL

O=C(/C=C/c1ccc(O)c(O)c1)O[C@@H]1C[C@](O)(C(=O)O)C[C@@H](O)[C@H]1O [Chlorogenic acid]
half-life ([1]; male, Sprague-Dawley, rat, n = 6): 2.71 ± 0.11 h
AUC(0-t) ([1]; male, Sprague-Dawley, rat, n = 6, read-out: AUC (0–36)): 34 ± 4.55 ng·h/mL
Cmax ([1]; male, Sprague-Dawley, rat, n = 6, read-out: Cmax): 16.1 ± 4.17 ng/mL
MRT last ([1]; male, Sprague-Dawley, rat, n = 6, read-out: MRT (0–36)): 4.97 ± 0.71 h
MRT inf ([1]; male, Sprague-Dawley, rat, n = 6, read-out: MRT (0–∞)): 4.97 ± 0.71 h
AUC(0-inf) ([1]; male, Sprague-Dawley, rat, read-out: areas under the concentration-time curve (AUC0–∞)): 34 ± 4.55 ng·h/mL
Tmax ([1]; male, Sprague-Dawley, rat, po, 9.6 g/kg, n = 6, read-out: Tmax): ≤ 1 h
t1/2 ([1]; n = 6): rapid elimination
Stability in rat plasma, Three freeze/thaw cycles, Measured ([2]; rat, plasma, 1 ng/mL): 1.1 ± 0.1 ng/mL
Stability in rat plasma, Three freeze/thaw cycles, Measured ([2]; rat, plasma, 10 ng/mL): 9.8 ± 0.8 ng/mL
Stability in rat plasma, Three freeze/thaw cycles, Measured ([2]; rat, plasma, 200 ng/mL): 212.6 ± 19.4 ng/mL
Stability in rat plasma, Room temperature (4 h, 25 °C), Measured ([2]; rat, plasma, 1 ng/mL): 1.2 ± 0.1 ng/mL
Stability in rat plasma, Room temperature (4 h, 25 °C), Measured ([2]; rat, plasma, 10 ng/mL): 9.2 ± 0.6 ng/mL
Stability in rat plasma, Room temperature (4 h, 25 °C), Measured ([2]; rat, plasma, 200 ng/mL): 187.6 ± 4.2 ng/mL
Stability in rat plasma, Autosampler (12 h, 4 °C), Measured ([2]; rat, plasma, 12 h, 1 ng/mL): 0.9 ± 0.1 ng/mL
Stability in rat plasma, Autosampler (12 h, 4 °C), Measured ([2]; rat, plasma, 12 h, 10 ng/mL): 9.1 ± 1.1 ng/mL
Stability in rat plasma, Autosampler (12 h, 4 °C), Measured ([2]; rat, plasma, 12 h, 200 ng/mL): 200.0 ± 14.0 ng/mL
Stability in rat plasma, Long term (7 day, –80 °C), Measured ([2]; rat, plasma, 168 h, 1 ng/mL): 1.0 ± 0.1 ng/mL
Stability in rat plasma, Long term (7 day, –80 °C), Measured ([2]; rat, plasma, 168 h, 10 ng/mL): 10.3 ± 0.5 ng/mL
Stability in rat plasma, Long term (7 day, –80 °C), Measured ([2]; rat, plasma, 168 h, 200 ng/mL): 214.4 ± 10.5 ng/mL
